# Test results reported in article doi:10.1101/2021.10.22.465361v1 (biorxiv, 2021).
# Biological target: T1, FABP7 (Brain fatty acid binding protein) (Homo sapiens, UniProt O15540)
# T1 sequence (O15540 2-132): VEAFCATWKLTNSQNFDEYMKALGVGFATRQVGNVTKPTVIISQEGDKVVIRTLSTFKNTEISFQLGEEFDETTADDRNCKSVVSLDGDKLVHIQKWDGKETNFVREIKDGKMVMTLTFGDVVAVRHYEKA
# Assay: microscale thermophoresis
row,Compound,Kd
1,"CCCCCCCC/C=C\CCCCCCCC(=O)O [OA, oleic acid]",~500 nM
2,"CC/C=C\C/C=C\C/C=C\C/C=C\C/C=C\C/C=C\CCC(=O)O [DHA, docosahexaenoic acid]",~500 nM
3,"CCCCCCCCCCCCCCCCCC(=O)O [SA, stearic acid]",~500 nM
